Data set [1] is described as follows: Partition coefficient (logP). The class given is physicochemical. The conditions noted are these: octanol/water.
A short description of data set [2]: Oral bioavailability in dog (dose 0.2 mg/kg i.v.). The data set is classed as ADME, organism-based, Canis lupus familiaris. To be noted: in vivo.
Data set [3] can be described thus: Half-life in vivo in dog by intravenous administration at a dose of 1 mg/kg. The class given is ADME, organism-based, Canis lupus familiaris. Details: dose 1 mg/kg, route intravenous.
Data set [4] relates to Canis familiaris. The data set is described as follows: Plasma clearance in vivo in dog by intravenous administration at a dose of 1 mg/kg. The class given is ADME, organism-based, Canis lupus familiaris. The arrangement: dose 1 mg/kg, route intravenous.
A short description of data set [5]: Half-life in vivo in dog by intravenous administration at a dose of 0.2 mg/kg. The data set is classed as ADME, organism-based, Canis lupus familiaris. Details: dose 0.2 mg/kg, route intravenous.
The subject of data set [6] is Canis familiaris. The experiment in a line: Plasma clearance in vivo in dog by intravenous administration at a dose of 0.2 mg/kg. The data set is classed as ADME, organism-based, Canis lupus familiaris. Details: dose 0.2 mg/kg, route intravenous.
Data set [7] is described as follows: Oral bioavailability in dog (dose 1 mg/kg i.v.). The class given is ADME, organism-based, Canis lupus familiaris. The conditions noted are these: in vivo.
The target of data set [8] is T1, Integrin alpha-V/beta-3 (Homo sapiens, UniProt P05106+P06756). The experiment in a line: Inhibitory activity against human alpha V beta3 receptor using SPAV3 assay. The class given is protein-complex assay.
Data set [9] is described as follows: Protein binding in human plasma. The conditions noted are these: read-out: PB (converted). The data set is classed as ADME, cell-free.
The target of data set [10] is T1, Integrin alpha-V/beta-3. The data set is described as follows: Inhibitory activity against human alphaV-beta3 integrin using SPAV3 assay. The data set is classed as protein-complex assay.

In general, logP refers to a log measure of how a compound divides between an organic and an aqueous phase. Read a high logP as higher lipophilicity. Broadly, the bioavailability is the share of a dose that reaches the circulation, judged against a reference dose that is usually intravenous. The low end stands for little systemic uptake, the high end for much systemic uptake. Broadly, the half-life is how long it takes for the measured level to halve. Low readings indicate rapid decline, high ones slow decline. What is called IC50 is the concentration needed to halve the response being measured.

T1 sequence (P05106 27-788 limits assumed): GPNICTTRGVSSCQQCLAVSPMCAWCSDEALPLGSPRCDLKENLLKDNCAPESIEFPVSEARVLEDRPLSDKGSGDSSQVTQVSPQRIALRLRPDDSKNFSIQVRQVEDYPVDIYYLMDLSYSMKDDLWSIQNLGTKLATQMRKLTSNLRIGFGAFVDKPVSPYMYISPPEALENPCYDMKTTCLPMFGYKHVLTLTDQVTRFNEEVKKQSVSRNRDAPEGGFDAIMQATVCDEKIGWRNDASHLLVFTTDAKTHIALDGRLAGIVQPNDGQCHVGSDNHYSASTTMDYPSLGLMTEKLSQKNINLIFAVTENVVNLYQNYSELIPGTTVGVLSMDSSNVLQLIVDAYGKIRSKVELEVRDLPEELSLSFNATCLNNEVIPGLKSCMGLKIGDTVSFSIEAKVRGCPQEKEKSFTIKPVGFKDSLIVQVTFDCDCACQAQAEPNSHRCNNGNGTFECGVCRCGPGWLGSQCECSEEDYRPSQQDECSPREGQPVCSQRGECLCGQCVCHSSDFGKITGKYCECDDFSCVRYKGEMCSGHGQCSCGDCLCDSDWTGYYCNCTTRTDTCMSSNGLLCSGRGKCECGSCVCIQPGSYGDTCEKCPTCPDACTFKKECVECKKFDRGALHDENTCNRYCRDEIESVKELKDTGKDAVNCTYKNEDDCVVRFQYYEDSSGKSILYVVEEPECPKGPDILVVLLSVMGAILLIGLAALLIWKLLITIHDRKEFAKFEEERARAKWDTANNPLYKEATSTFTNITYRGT
T1 sequence (P06756 31-889 limits assumed): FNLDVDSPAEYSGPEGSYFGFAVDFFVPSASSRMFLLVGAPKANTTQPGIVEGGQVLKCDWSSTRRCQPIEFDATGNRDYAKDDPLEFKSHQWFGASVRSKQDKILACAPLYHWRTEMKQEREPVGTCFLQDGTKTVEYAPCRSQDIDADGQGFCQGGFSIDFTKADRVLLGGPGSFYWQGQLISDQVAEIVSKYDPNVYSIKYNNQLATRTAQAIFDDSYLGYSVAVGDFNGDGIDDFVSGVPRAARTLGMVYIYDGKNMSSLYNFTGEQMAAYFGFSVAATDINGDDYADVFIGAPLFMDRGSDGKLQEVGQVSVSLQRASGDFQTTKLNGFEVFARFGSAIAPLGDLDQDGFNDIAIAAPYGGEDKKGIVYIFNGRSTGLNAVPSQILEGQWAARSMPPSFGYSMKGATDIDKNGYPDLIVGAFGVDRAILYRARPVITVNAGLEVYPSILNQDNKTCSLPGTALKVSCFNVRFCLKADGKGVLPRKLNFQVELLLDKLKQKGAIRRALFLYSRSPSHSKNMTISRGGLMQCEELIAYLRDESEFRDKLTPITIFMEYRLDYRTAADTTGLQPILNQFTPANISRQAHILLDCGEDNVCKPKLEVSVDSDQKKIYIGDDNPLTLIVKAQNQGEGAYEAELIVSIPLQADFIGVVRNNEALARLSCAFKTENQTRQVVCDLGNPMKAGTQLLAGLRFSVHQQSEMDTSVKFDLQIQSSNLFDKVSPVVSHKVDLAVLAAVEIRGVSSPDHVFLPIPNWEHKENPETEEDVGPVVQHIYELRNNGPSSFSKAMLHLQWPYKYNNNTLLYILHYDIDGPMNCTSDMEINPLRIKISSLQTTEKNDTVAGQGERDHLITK
T1 sequence (P06756 891-1048 limits assumed): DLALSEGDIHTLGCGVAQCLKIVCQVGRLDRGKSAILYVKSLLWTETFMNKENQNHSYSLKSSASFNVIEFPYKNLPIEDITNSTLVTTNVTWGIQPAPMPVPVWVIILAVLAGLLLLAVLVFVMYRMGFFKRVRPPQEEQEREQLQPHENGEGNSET

As for `O=C(O)C[C@H](NC(=O)Cn1c(C2CC2)cnc(NCc2ccc3c(n2)NCCC3)c1=O)c1cccc(F)c1`, in data set [1], the logP is 0.15. In addition, the bioavailability in data set [2] and in data set [7] was 0.3% throughout. In addition, the half-life in data set [3] and in data set [5] was 1.1 h in each case. Further, the Cl in data set [4] and in data set [6] was 26 mL/min/kg throughout. In data set [8], this compound came in with an IC50 of 1.4 nM. For the same compound, the fraction unbound in [9] was 0.025.

Regarding `Cc1ccc(NCc2ccc3c(n2)NCCC3)c(=O)n1CC(=O)N[C@@H](CC(=O)O)c1cccnc1`, the logP in data set [1] is -1.46. The half-life in data set [3] and in [5] was 0.8 h in each case. Besides, the Cl in data set [4] and in data set [6] was 21 mL/min/kg each time. Further, in data set [10], the IC50 amounted to 1 nM. In addition, the fraction unbound in data set [9] is 0.088.

On to `O=C(O)C[C@H](NC(=O)Cn1c(C2CC2)cnc(NCc2ccc3c(n2)NCCC3)c1=O)c1cccnc1`, for which the logP in data set [1] was 0.25. In [8], the IC50 is 0.2 nM.

In the case of `CCc1cnc(NCc2ccc3c(n2)NCCC3)c(=O)n1CC(=O)N[C@@H](CC(=O)O)c1cccc(F)c1`, the logP in data set [1] was -0.47. Also, the bioavailability in [2] and in [7] was 4.3% each time. The half-life in data set [3] and in data set [5] was 1.4 h each time. The Cl in data set [4] and in [6] was 22 mL/min/kg each time. For the same compound, the concentration for half-maximal inhibition (IC50) in data set [8] worked out at 1.9 nM. Besides, the fraction unbound in data set [9] is 0.028.

Compound `O=C(O)C[C@H](NC(=O)Cc1ccc(CCc2ccc3c(n2)NCCC3)s1)c1cccnc1` yielded an IC50 in [10] of 246 nM.

In data set [1], `CCc1c(Cl)nc(NCc2ccc3c(n2)NCCC3)c(=O)n1CC(=O)N[C@@H](CC(=O)O)c1cccc(F)c1` yielded a logP of 1.3. Inhibition in data set [8] was half-maximal at 9.3 nM (IC50).

For `C#C[C@H](CC(=O)O)NC(=O)Cn1c(C2CC2)ccc(NCc2ccc3c(n2)NCCC3)c1=O`, the logP in [1] is -0.97. The half-inhibitory concentration (IC50) in [10] stood at 9 nM.

On to `O=C(O)C[C@H](NC(=O)Cn1c(C2CC2)ccc(NCc2ccc3c(n2)NCCC3)c1=O)c1cccnc1`, for which, in [1], the logP was -0.8. The same compound gave an IC50 in data set [10] of 0.2 nM.

As for `O=C(O)C[C@H](NC(=O)Cn1c(-c2ccccc2)c(Cl)nc(NCc2ccc3c(n2)NCCC3)c1=O)c1cccc(F)c1`, the logP in data set [1] amounted to 1.6. This compound came in with an IC50 in data set [8] of 112 nM.

`O=C(O)C[C@H](NC(=O)Cn1c(C2CC2)c(Cl)nc(NCc2ccc3c(n2)NCCC3)c1=O)c1cccnc1` came in with a logP in data set [1] of -0.26. The half-maximal inhibitory concentration (IC50) in data set [8] came out at 0.3 nM.

`Cc1c(Cl)nc(NCc2ccc3c(n2)NCCC3)c(=O)n1CC(=O)N[C@@H](CC(=O)O)c1cccc(F)c1` gave a logP in data set [1] of 0.61. The half-life in data set [3] and in [5] was 2.1 h in each case. The Cl in data set [4] and in [6] was 28 mL/min/kg throughout. The same compound returned an IC50 in data set [8] of 2.1 nM. Further, the fraction unbound in [9] was 0.015.

In turn, `O=C(O)C[C@H](NC(=O)Cn1c(C2CC2)cnc(NCc2ccc3c(n2)NCCC3)c1=O)c1ccc2c(c1)OCO2` registered a lipophilicity (logP) in data set [1] of -0.1. Moreover, the bioavailability in data set [2] and in [7] was 0.3% each time. Further, the half-life in data set [3] and in [5] was 1.1 h throughout. Further, the Cl in data set [4] and in data set [6] was 26 mL/min/kg each time. This compound also showed an IC50 in data set [8] of 0.2 nM. The fraction unbound in data set [9] was 0.025.

`O=C(O)C[C@H](NC(=O)Cn1c(C2CC2)ccc(NCc2ccc3c(n2)NCCC3)c1=O)c1ccc2c(c1)OCC2` had a logP in data set [1] of 0.28. Moreover, the midpoint of inhibition in [10], the IC50, lay at 0.2 nM.

The compound `O=C(O)C[C@H](NC(=O)Cn1c(C2CC2)c(Cl)nc(NCc2ccc3c(n2)NCCC3)c1=O)c1ccc2c(c1)OCC2` gave a logP in data set [1] of 0.9. The IC50 in data set [8] came out at 0.2 nM.

Consider `O=C(O)C[C@H](NC(=O)Cc1cccc(CCc2ccc3c(n2)NCCC3)c1)c1cccnc1`, for which inhibition in [8] was half-maximal at 21 nM (IC50).

`O=C(O)C[C@H](NC(=O)Cn1cccc(NCc2ccc3c(n2)NCCC3)c1=O)c1cccnc1` displayed a logP in [1] of 1.55. Besides, in data set [10], 1.4 nM corresponded to half-maximal inhibition (IC50).

In data set [10], `Cc1cnc(NCc2ccc3c(n2)NCCC3)c(=O)n1CC(=O)N[C@@H](CC(=O)O)c1cccnc1` yielded an IC50 of 0.8 nM.

Compound `O=C(O)C[C@H](NC(=O)Cn1c(C2CC2)c(Cl)nc(NCc2ccc3c(n2)NCCC3)c1=O)c1cnc2ccccc2c1` yielded a logP in data set [1] of 1.12. In data set [8], this compound yielded an IC50 of 0.7 nM.

Consider `O=C(O)C[C@H](NC(=O)CN1CC[C@H](CCc2ccc3c(n2)NCCC3)C1=O)c1cccnc1`, for which the half-life in data set [3] and in data set [5] was 1 h each time. The compound also gave an IC50 in data set [8] of 0.4 nM. Besides, in [9], the fraction unbound was 0.446.

`O=C(O)C[C@H](NC(=O)Cn1c(C2CC2)c(Cl)nc(NCc2ccc3c(n2)NCCC3)c1=O)c1cccc(F)c1` showed a logP in data set [1] of 1.1. The compound also had an IC50 in [8] of 2.7 nM.

In turn, `Cc1cnc(NCc2ccc3c(n2)NCCC3)c(=O)n1CC(=O)N[C@@H](CC(=O)O)c1cccc(F)c1` returned a logP in data set [1] of -0.31. Half-maximal inhibition in data set [8] (IC50) was put at 1.1 nM.

As to `O=C(O)C[C@H](NC(=O)Cn1c(C2CC2)ccc(NCc2ccc3c(n2)NCCC3)c1=O)c1cccc(F)c1`, the logP in [1] came out at 0.54. The bioavailability in [2] and in [7] was 3% each time. Also, the half-life in data set [3] and in data set [5] was 0.8 h throughout. The Cl in data set [4] and in [6] was 20 mL/min/kg throughout. The same compound came in with an IC50 in data set [10] of 0.8 nM. Moreover, the fraction unbound in [9] is 0.006.

`CCCc1ccc(NCc2ccc3c(n2)NCCC3)c(=O)n1CC(=O)N[C@@H](CC(=O)O)c1cccnc1`: the logP in [1] was -0.48. The IC50 in data set [10] is 1.4 nM.
